Experimental data taken from article PMC11869560, “Anticancer and cancer preventive activities of shogaol and curcumin from Zingiberaceae family plants in KG-1a leukemic stem cells” (BMC Complementary Medicine and Therapies, 2025).

Legend:
[1] = tested on: NO production in LPS-activated RAW264.7 cells; experiment: NO production in LPS-activated RAW264.7 cells; assay type: cell-based, mouse; details: IC20 concentration, 2 h pre-treatment then 1 µg/mL LPS 24 h
Protocol: (§1) For the measurement of tumor necrosis factor-alpha (TNF-α) and NO, RAW264.7 cells were pre-treated with plant extracts and active compounds at a non-cytotoxic dose (IC20) (Table S9) or 1 µg/mL of dexamethasone (positive control) in a 24-well plate for 2 h. Subsequently, 1 µg/mL of lipopolysaccharide (LPS) (Cat No. 00497693, Invitrogen™, MA, USA) was added to each well, and the cells were incubated for an additional 24 h to allow sufficient time for the compounds to exert measurable anti-inflammatory effects while maintaining cell viability. Afterward, supernatants were collected, and the levels of TNF-α and NO were measured using the Mouse TNF alpha Uncoated ELISA Kit (Invitrogen™, ThermoFisher Scientific, MA, USA) and the Total Nitric Oxide Assay Kit (Invitrogen™, ThermoFisher Scientific, MA, USA), respectively, according to the manufacturer’s instructions.
(§2) The percentage of NO or cytokine inhibitions were calculated using the following equation: […]
(§3) where A is the level of cytokine or NO without treatment, and B is the level of cytokine or NO with treatment.

[2] = tested on: IL-2 production in PHA-activated PBMCs; experiment: IL-2 production in PHA-activated PBMCs (ELISA); assay type: cell-based, human; details: IC20 concentration, 2 h pre-treatment then 20 µL/mL PHA 24 h
Protocol: For the measurement of interleukin-2 (IL-2), human PBMCs were pre-treated with plant extracts and active compounds at the IC20 concentration (Table S9) or 1 µg/mL of dexamethasone (positive control) in a 24-well plate for 2 h. Subsequently, 20 µL/mL of phytohemagglutinin (PHA) (Cat. No. 10576015, Thermo Fisher Scientific, MA, USA) was added to each well, and the cells were incubated for an additional 24 h. After that, supernatants were collected, and the levels of IL-2 were measured by the Human IL-2 Uncoated ELISA Kit (Invitrogen™, ThermoFisher Scientific, MA, USA), according to the manufacturer’s instructions.
as §2, §3

[3] = tested on: TNF-α production in LPS-activated RAW264.7 cells; experiment: TNF-α production in LPS-activated RAW264.7 cells (ELISA); assay type: cell-based, mouse; details: IC20 concentration, 2 h pre-treatment then 1 µg/mL LPS 24 h
Protocol: as §1, §2, §3

CCCCC/C=C/C(=O)CCc1ccc(O)c(OC)c1 [Shogaol, shogaol]
inhibition of NO release [1]: 46.46 ± 3.71%
inhibition of IL-2 release [2]: 80.04 ± 4.82%
inhibition of TNF-α release [3]: 24.41 ± 0.99%
